This note sets out measurements from patent US9764001B2, “Target for diagnosis and treatment of diabetes and cardiovascular diseases” (The Regents of the University of California, priority 2012, dated 2017).

Entries after “also recorded” stand apart in the source; their conditions may differ. Like-named read-outs stand apart in the source and are kept apart here.

Test [1] deals with primary mouse islets. Description: Static GSIS test using primary mouse islets. The class given is cell-based. As to conditions: FKN 100 ng/ml; PTX 250 ng/ml, Wortmannin 10 μM, PD98059 50 μM.
Protocol: (FIGS. 6A-1 to 6A-4) GSIS test using primary mouse islets with or without pertussis toxin (PTX; 250 ng/ml), Wortmannin (Wort; 10 μM), or PD98059 (50 μM), in the presence or absence of FKN (100 ng/ml). Mean+/−SEM, n=6 per group.
Isolated mouse islets were cultured overnight in mouse islet media (DMEM containing 1 g/L glucose, 10% v/v FBS, 0.1% v/v Penicillin/Streptomycin).
For test [2], the system named is Min6 cells. Nature of the test: Palmitate-induced ICER-1 and beta cell gene expression in Min6 cells (quantitative realtime RT-PCR). Type of test: cell-based, mouse. As to conditions: palmitate 0.4 mM, FKN 100 ng/ml, U0126 10 μM, 48 h.
Protocol: Min6 cells were incubated with palmitate (Pal; 0.4 mM) in the presence or absence of FKN (100 ng/ml) or U0126 (10 μM). 48 h later, cells were harvested and subjected to quantitative realtime RT-PCR.
The subject of test [3] is Min6 cells. Description: Intracellular calcium level measurement (fura-2) in Min6 cells. Type of test: cell-based, mouse.
Protocol: (FIGS. 6C to 6I) Intracellular calcium level in Min6 mouse beta cells in the presence or absence of glucose (FIG. 6C, with glucose; FIG. 6D, without glucose), nimodipine (10 μM) (FIG. 6E), control antibody (FIG. 6F), anti-CX3CR1 neutralizing antibody (FIG. 6G), PTX (250 ng/ml) (FIG. 6H), or U0126 (10 μM) (FIG. 6I). Mean+/−SEM.
(FIGS. 15A-1 to 15B-3) Intracellular calcium level in Min6 cells. Min6 cells were incubated in 2.8 mM glucose media with or without U0126 (10 μM) for 30 minutes, and then subjected to intracellular calcium measurement in the presence or absence of arginine (10 mM) and/or high glucose (16.7 mM) challenge. (FIGS. 15A-1 to 15A-3) Intracellular calcium level with arginine treatment. (FIGS. 15B-1 to 15B-3) Intracellular calcium level with arginine plus high glucose (16.7 mM) treatment. Area under the curve for first 90 (FIG. 15B-1) or 60 (FIG. 15B-2) seconds was graphed in FIG. 15B-3.
The Cytoplasmic free calcium ion concentration in Min6 cells was measured by fura-2 fluorescence ratio digital imaging. Briefly, Min6 cells, grown on coverslips, were loaded with 5 μM fura-2 AM [dissolved in 0.01% Pluronic F-127 plus 0.1% DMSO in KRB] at room temperature for 60 min and then washed in fresh KRB for 30 min. The coverslips with Min6 cells were mounted in a perfusion chamber on a Nikon microscope stage.
Test [4] deals with Min6 cells. Nature of the test: GSIS test using Min6 cells. The class given is cell-based, mouse. As to conditions: for glucose- and arginine plus glucose-stimulated insulin secretion: U0126 10 μM, arginine 10 mM, glucose 16.7 mM.
Protocol: (FIG. 6B) GSIS test using Min6 cells with or without FKN (100 ng/ml) or U0126 (10 μM). Mean+/−SEM.
Min6 cells were incubated in 2.8 mM glucose media with or without U0126 (10 μM) for 30 minutes, and then subjected to intracellular calcium measurement in the presence or absence of arginine (10 mM) and/or high glucose (16.7 mM) challenge.
Test [5] concerns Min6 cells. Description: ERK phosphorylation western blot in Min6 cells. Type of test: cell-based, mouse. As to conditions: PTX 250 ng/ml pre-treatment 15 min. The procedure: FIG. 14. FKN stimulates ERK phosphorylation in a PTX-sensitive manner (related to FIGS. 6A-1 to 6Q-4). Min6 cells were pre-treated with DMSO (control), U0126 (10 μM), or PTX (250 ng/ml) for 15 min, and then incubated with or without FKN (100 ng) for 15 min. Cells were harvested and subjected to western blot.
(In general: Immunoblotting shows a protein as a band on a membrane.)

Test [6] deals with human islets. Description: Static GSIS studies using human islets. The class given is cell-based.

For the molecule `COc1cccc(-c2cc(=O)c3ccccc3o2)c1N` [PD98059], the “effect of inhibitor on FKN-stimulated insulin secretion” value in test [1] was “inhibited”.

In the case of `N#CC(=C(/N)Sc1ccccc1N)/C(C#N)=C(\N)Sc1ccccc1N` [U0126], the “effect of MEK inhibitor on FKN effects on ICER-1, NeuroD, PDX-1 and Glut2 expression” value in test [2] is “abolished”. Besides, the “arginine plus glucose-stimulated intracellular calcium increase” value in test [3] was “attenuated; also recorded: reduces”. In addition, the “effect on FKN-induced intracellular calcium increase” value in test [3] was “blocked”. Moreover, the “effect on FKN potentiation of glucose and GLP1-induced insulin secretion” value in test [4] (FIG. 6B: U0126 10 μM, FKN 100 ng/ml) is recorded as “suppressed”. Moreover, the “glucose- and arginine plus glucose-stimulated insulin secretion” value in test [4] was “reduces”; in test [4] (listed as MEK inhibitor), “attenuated”.

For pertussis toxin, the “effect of inhibitor on FKN-stimulated insulin secretion” value in test [1] is “inhibited”. In test [3] (PTX 250 ng/ml, U0126 10 μM, anti-CX3CR1 antibody vs control antibody), the “effect on FKN-induced intracellular calcium increase” value is given as “blocked”. Also, the “sensitivity of FKN-stimulated ERK phosphorylation to inhibitor” value in test [5] was “PTX-sensitive”.

B1: human FKN: human fractalkine used on isolated human islets (100 or 400 ng/ml) (protein, UniProt P78423 25-397, looked up)
Fractalkine: QHHGVTKCNITCSKMTSKIPVALLIHYQQNQASCGKRAIILETRQHRLFCADPKEQWVKDAMQHLDRQAAALTRNGGTFEKQIGEVKPRTTPAAGGMDESVVLEPEATGESSSLEPTPSSQEAQRALGTSPELPTGVTGSSGTRLPPTPKAQDGGPVGTELFRVPPVSTAATWQSSAPHQPGPSLWAEAKTSEAPSTQDPSTQASTASSPAPEENAPSEGQRVWGQGQSPRPENSLEREEMGPVPAHTDAFQDWGPGSMAHVSVVPVSSEGTPSREPVASGSWTPKAEEPIHATMDPQRLGVLITPVPDAQAATRRQAVGLLAFLGLLFCLGVAMFTYQSLQGCPRKMAGEMAEGLRYIPRSCGSNSYVLVPV
As for B1, the “increase in GSIS” value in test [6] (at the maximal concentration (100 or 400 ng/ml tested)) is reported as 65%. The GSIS dose response entry in test [6] (human FKN 100 or 400 ng/ml) is “dose responsive increase”.
